# Laboratory results taken from patent US20230312561A1, “SOLID FORMS OF (Z)-METHYL 3-(((4-(N-METHYL-2-(4-METHYLPIPERAZIN-1-YL)ACETAMIDO)PHENYL)AMINO)(PHENYL)METHYLENE)-2-OXO-2,3-DIHYDRO-1H-PYRROLO[2,3-B]PYRIDINE-6-CARBOXYLATE AND SALTS THEREOF” (Angion Biomedica Corp., priority 2020, published 2023).
# Legend:
# Type in all cases: physicochemical
# [1] = pH-dependent solubility (NaOH titration, pH 3-8); conditions: 25° C.
# Description: A titration and solubility determination of Compound 1 Hydrochloride Form A (Type 1 Lot) was performed using NaOH over a pH range of 3-8. A solution was produced at 25° C. with magnetic agitation by combining 100 mg Compound 1 Hydrochloride Form A (Type 1 Lot) into 5 mL deionized water to give a concentration of 20 mg/mL within a clean glass vessel. […] The solution was slowly basified using 1.0 N, 0.1 N, and 0.01 N NaOH (with the lower concentrations being used to finely adjust pH close to the end point target pH and avoid overshooting) to achieve pH values of 4, 5, 5.5, 6, 7, and 8. […] The concentration of the test solution was lowered at pH 6 from 20 mg/mL to 5 mg/mL with repeat testing at each concentration to illustrate salt impact. Each pH value was allowed to equilibrate to stability prior to solubility evaluation via HPLC assessment of the clarified liquors. Dilution by 100× or 50× into the working range was performed using deionized water.
# [2] = Organic solubility (thermodynamic, 25° C., heating cycle to 75° C.); conditions: for Solubility at 25° C.: 20 volumes; for XRPD after heat/cool cycle: cycle up to 75° C.
# Description: Compound 1 Hydrochloride Form A (Type 1 Lot) (ca. 50 mg) was equilibrated in a range of organic solvents in order to collect thermodynamic values for solubility. Solvents were charged in 500 μL aliquots (ca. 10 volumes) to the Compound 1 Hydrochloride Form A (Type 1 Lot) dispensed as a powder (ca. 50 mg) in 16 mm diameter glass reaction tubes until dissolution was achieved or up to 1000 μL (ca. 20 volumes) total volume was charged, with observations noted during dosing. The samples were equilibrated at 25° C. for a minimum of 24 hours with stirrer bead agitation.
# Samples which remained as suspensions and contained enough solids were split into two equal portions, with one portion isolated by filtration and the resulting damp solids profiled by XRPD. These solids were then dried in vacuo at 45° C. for ca. 16 hours before further profiling. The filtrates from the solvent suspensions were isolated, diluted by 1 in 50 using acetonitrile/water (1:1), and the Compound 1 content determined by HPLC against a single point standard.
# The remaining portion of each suspension was subjected to a heating cycle up to 75° C. with equilibration at 10° C. temperature intervals for a minimum of 30 minutes, before allowing to cool naturally to 40° C., followed by equilibration for ca. 16 hours before continuing to cool naturally (approximately 10° C./hr) to 25° C.
# [3] = Solution state stability of Compound 1 Hydrochloride (HPLC purity in stressing media, 25° C.)
# Description: The solution state stability of Compound 1 Hydrochloride Form A (Type 1 Lot) was examined under various storage conditions within a suitable glass vessel with stirrer bead agitation at 25° C. Compound 1 Hydrochloride stock solution ([…]) in HPLC diluent (acetonitrile/water, 1:1) was prepared and 5 mL placed within suitable glass vessels with stirrer bead agitation at 25° C. An aliquot of the appropriate stressing medium (5 mL) was added to achieve a sample concentration of approximately 0.5 mg/mL. The samples were agitated and stored at 25° C. and the solutions assessed for HPLC purity for stability at particular time points.
# [4] = Solid state stability under humid conditions (40° C./75% RH and 25° C./60% RH, two weeks)
# Description: Stability of Compound 1 Hydrochloride Forms A, B, C, and D was evaluated under humid conditions. Samples of Forms A, B, C, and D were stored at 40° C./75% RH and 25° C./60% RH for a period of two weeks (loosely capped glass vials with approx. 200 mg solid). Solids were then re-analyzed using methods described herein. A summary of the results is provided in Table 12 (after storage at 25° C./60% RH) and Table 13 (after storage at 40° C./75% RH).
smiles,measurement,setting,value
COC(=O)c1ccc2c(c1)NC(=O)/C2=C(\Nc1ccc(N(C)C(=O)CN2CCN(C)CC2)cc1)c1ccccc1.Cl [Compound 1 Hydrochloride Form A (Type 1 Lot)],initial pH reading of solution,"[1]; 20 mg/mL in deionized water, stable over 10 minutes",3.03
same,Solubility,"[1]; pH 3.03, starting concentration 20 mg/mL",>20000 µg/mL
same,Solubility,"[1]; pH 4.0, starting concentration 20 mg/mL",>20000 µg/mL
same,Solubility,"[1]; pH 5.0, starting concentration 20 mg/mL",16000 µg/mL
same,Solubility,"[1]; pH 5.5, starting concentration 20 mg/mL",700 µg/mL
same,Solubility,"[1]; pH 6.0, starting concentration 5 mg/mL",60 µg/mL
same,Solubility,"[1]; pH 6.0, starting concentration 20 mg/mL",60 µg/mL
same,Solubility,"[1]; pH 7.0, starting concentration 5 mg/mL",50 µg/mL
same,Solubility,"[1]; pH 8.0, starting concentration 5 mg/mL",1 µg/mL
same,Observation after heat/cool cycle,[2],Suspension
same,XRPD after equilibration at 25° C.,[2]; 2-Butanone,Form C
same,Solubility at 25° C.,[2]; 2-Butanone,4.9 µg/mL
same,XRPD after heat/cool cycle,[2]; 2-Butanone,Form C
same,XRPD after equilibration at 25° C.,[2]; 2-Propanol,Form C
same,Solubility at 25° C.,[2]; 2-Propanol,60 µg/mL
same,XRPD after heat/cool cycle,[2]; 2-Propanol,Form C
same,XRPD after equilibration at 25° C.,[2]; Acetone,Form C
same,Solubility at 25° C.,[2]; Acetone,14.4 µg/mL
same,XRPD after heat/cool cycle,[2]; Acetone,Form C
same,XRPD after equilibration at 25° C.,[2]; Acetonitrile,Form C
same,Solubility at 25° C.,[2]; Acetonitrile,170 µg/mL
same,XRPD after heat/cool cycle,[2]; Acetonitrile,Form C
same,Solubility at 25° C.,[2]; Anisole,8.1 µg/mL
same,XRPD after heat/cool cycle,[2]; Anisole,Unassigned form
same,XRPD after equilibration at 25° C.,[2]; DMSO,Form A
same,Solubility at 25° C.,[2]; DMSO,10820 µg/mL
same,XRPD after heat/cool cycle,[2]; DMSO,Form A
same,Solubility at 25° C.,[2]; Dichloromethane,1750 µg/mL
same,XRPD after heat/cool cycle,[2]; Dichloromethane,Form C
same,XRPD after equilibration at 25° C.,[2]; Diethyl ether,Form C
same,Solubility at 25° C.,[2]; Diethyl ether,3 µg/mL
same,XRPD after heat/cool cycle,[2]; Diethyl ether,Form C
same,XRPD after equilibration at 25° C.,[2]; Ethanol,Form C
same,Solubility at 25° C.,[2]; Ethanol,880 µg/mL
same,XRPD after heat/cool cycle,[2]; Ethanol,Form C
same,XRPD after equilibration at 25° C.,[2]; Ethyl acetate,Form C
same,Solubility at 25° C.,[2]; Ethyl acetate,1.8 µg/mL
same,XRPD after heat/cool cycle,[2]; Ethyl acetate,Form C
same,XRPD after equilibration at 25° C.,[2]; Heptane,Form A
same,Solubility at 25° C.,[2]; Heptane,2.2 µg/mL
same,XRPD after heat/cool cycle,[2]; Heptane,Form A
same,XRPD after equilibration at 25° C.,[2]; Isopropyl acetate,Form C
same,Solubility at 25° C.,[2]; Isopropyl acetate,2.8 µg/mL
same,XRPD after heat/cool cycle,[2]; Isopropyl acetate,Form C
same,XRPD after equilibration at 25° C.,[2]; MIBK,Form C
same,Solubility at 25° C.,[2]; MIBK,1.8 µg/mL
same,XRPD after heat/cool cycle,[2]; MIBK,Form C
same,XRPD after equilibration at 25° C.,[2]; Methanol,Form B
same,Solubility at 25° C.,[2]; Methanol,4480 µg/mL
same,XRPD after equilibration at 25° C.,[2]; TBME,Form A
same,Solubility at 25° C.,[2]; TBME,2.3 µg/mL
same,XRPD after equilibration at 25° C.,[2]; Tetrahydrofuran,Form C
same,Solubility at 25° C.,[2]; Tetrahydrofuran,12.5 µg/mL
same,XRPD after heat/cool cycle,[2]; Tetrahydrofuran,Form C
same,XRPD after equilibration at 25° C.,[2]; Toluene,Form A
same,Solubility at 25° C.,[2]; Toluene,0.6 µg/mL
same,dissolution in organic solvents on heating cycle,"[2]; any temperature (25° C.-75° C.), any solvent tested",Full or partial dissolution was not observed
same,XRPD after equilibration at 25° C.,[2]; n-Butyl acetate,Form C
same,Solubility at 25° C.,[2]; n-Butyl acetate,0.7 µg/mL
same,XRPD after heat/cool cycle,[2]; n-Butyl acetate,Form C
same,HPLC (%),"[3]; 1 M HCl, 1 h",99.53%
same,HPLC (%),"[3]; 1 M HCl, 6 h",99.29%
same,HPLC (%),"[3]; 1 M HCl, 24 h",96.56%
same,HPLC (%),"[3]; 1 M HCl, 3 d",95.63%
same,HPLC (%),"[3]; 1 M HCl, 7 d",90.58%
same,HPLC (%),"[3]; 1 M NaOH, 1 h",0.49%
same,HPLC (%),"[3]; 1 M NaOH, 6 h",0.65%
same,HPLC (%),"[3]; 5% H2O2, 1 h",80.39%
same,HPLC (%),"[3]; 5% H2O2, 6 h",46.74%
same,HPLC (%),"[3]; 5% H2O2, 24 h",0.42%
same,HPLC (%),"[3]; Control (water), 1 h",99.68%
same,HPLC (%),"[3]; Control (water), 6 h",99.69%
same,HPLC (%),"[3]; Control (water), 24 h",99.54%
same,HPLC (%),"[3]; Control (water), 3 d",99.42%
same,HPLC (%),"[3]; Control (water), 7 d",99.50%
same,TGA After Storage: further loss above/post 200° C.,[4]; 25° C./60% RH,"100° C., further loss of 0.96%"
same,TGA After Storage: total water content,[4]; 25° C./60% RH,of 10.9%
same,XRPD After Storage,[4]; 25° C./60% RH,Form A
same,TGA After Storage: further loss above/post 200° C.,[4]; 40° C./75% RH,"100° C., further loss of 1.05%"
same,TGA After Storage: total water content,[4]; 40° C./75% RH,of 11.18%
same,TGA After Storage: weight reduction up to 100° C.,[4]; 40° C./75% RH,Weight reduction of 10.13% up to
same,XRPD After Storage,[4]; 40° C./75% RH,Form A
